Test results taken from patent publication US20230203081A1, “LINCOSAMIDE ANTIBIOTICS AND USES THEREOF” (President and Fellows of Harvard College, priority 2020, published 2023).
Converted amounts (≈) assume the structure as drawn.

What was measured:
Format in all cases: cell-based
S. aureus ATCC 29213 = assay: MIC (broth microdilution or agar dilution, CLSI); details: Staphylococcus aureus, ATCC29213, S. aureus ATCC 29213; read-out: MIC
Method: (§1) Minimum inhibitory concentrations (MICs) were determined by broth microdilution method or agar dilution method following the Clinical and Laboratory Standards Institute guidelines. Standard bacterial strains were obtained from American Type Culture Collection (ATCC). Other bacterial strains were obtained from hospitals and commercial sources, so noted in Table 11. […] Specialized procedures were employed for streptococcal and anaerobic strains. All other bacterial strains were sub-cultured on blood agar plates (tryptic soy agar with 5% sheep blood, Hardy Diagnostics) and incubated overnight at 35° C. […] Suspensions were further diluted to obtain a final inoculum of 5×10^5 CFU/mL for broth microdilution experiments.

E. coli LptD = assay: MIC (broth microdilution or agar dilution, CLSI); details: Escherichia coli, E. coli LptD; read-out: MIC
Method: as §1

K. oxytoca Clinical = assay: MIC (broth microdilution or agar dilution, CLSI); details: Klebsiella oxytoca; K. oxytoca Clinical; read-out: MIC
Method: as §1

S. pneumoniae ATCC 49619 = assay: MIC (broth microdilution or agar dilution, CLSI); details: Streptococcus pneumoniae, ATCC49619, S. pneumoniae ATCC 49619; read-out: MIC
Method: as §1

E. coli ATCC 25922 = assay: MIC (broth microdilution or agar dilution, CLSI); details: Escherichia coli, ATCC25922; E. coli ATCC 25922; read-out: MIC
Method: as §1

S. pyogenes ATCC 19615 = assay: MIC (broth microdilution or agar dilution, CLSI); details: Streptococcus pyogenes, ATCC19615, S. pyogenes ATCC 19615; read-out: MIC
Method: as §1

E. faecalis ATCC 29212 = assay: MIC (broth microdilution or agar dilution, CLSI); details: Enterococcus faecalis, ATCC29212, E. faecalis ATCC 29212; read-out: MIC
Method: as §1

A. baumannii ATCC 19606 = assay: MIC (broth microdilution or agar dilution, CLSI); details: Acinetobacter baumannii, ATCC19606; A. baumannii ATCC 19606; read-out: MIC
Method: as §1

S. aureus cErmA = assay: MIC (broth microdilution or agar dilution, CLSI); details: Staphylococcus aureus; S. aureus cErmA; read-out: MIC
Method: (§2) Minimum inhibitory concentrations (MICs) were determined by broth microdilution method or agar dilution method following the Clinical and Laboratory Standards Institute guidelines. Standard bacterial strains were obtained from American Type Culture Collection (ATCC). Other bacterial strains were obtained from hospitals and commercial sources, so noted in Table 11. Before the start of the MIC experiment, standard and test compound stock solutions were prepared in dimethyl sulfoxide (DMSO, Aldrich D2650) at a stock concentration of 5,120 μg/mL. The compound concentration range typically employed for each experiment was 128-0.06 μg/mL (2.5% final DMSO concentration). Clindamycin was used as a comparator in all experiments and each experiment was performed in triplicate. Specialized procedures were employed for streptococcal and anaerobic strains. All other bacterial strains were sub-cultured on blood agar plates (tryptic soy agar with 5% sheep blood, Hardy Diagnostics) and incubated overnight at 35° C. Organisms were suspended in cation-adjusted Mueller-Hinton broth (CaMHB, BD 212322) and optical density was adjusted to 0.5 McFarland standard. Suspensions were further diluted to obtain a final inoculum of 5×10^5 CFU/mL for broth microdilution experiments.

E. faecium Clinical VRE = assay: MIC (broth microdilution or agar dilution, CLSI); details: Enterococcus faecium; E. faecium Clinical VRE; read-out: MIC
Method: as §2

P. aeruginosa ATCC 27853 = assay: MIC (broth microdilution or agar dilution, CLSI); details: Pseudomonas aeruginosa, ATCC27853; P. aeruginosa ATCC 27853; read-out: MIC
Method: as §2

E. coli ΔTolC = assay: microbe, parasite or virus in culture; details: Escherichia coli, E. coli ΔTolC
Method: as §1

| Structure (SMILES) | MIC (S. aureus ATCC 29213) [µg/mL] | MIC (E. coli LptD) [µg/mL] | MIC (K. oxytoca Clinical) [µg/mL] | MIC (S. pneumoniae ATCC 49619) [µg/mL] | MIC (E. coli ATCC 25922) [µg/mL] | MIC (S. pyogenes ATCC 19615) [µg/mL] | MIC (E. faecalis ATCC 29212) [µg/mL] | MIC (A. baumannii ATCC 19606) [µg/mL] | MIC (S. aureus cErmA) [µg/mL] | MIC (E. faecium Clinical VRE) [µg/mL] | MIC (P. aeruginosa ATCC 27853) [µg/mL] | MIC (E. coli ΔTolC) [µg/mL] |
| --- | --- | --- | --- | --- | --- | --- | --- | --- | --- | --- | --- | --- |
| CSC1O[C@H]([C@H](NC(=O)[C@H]2NC[C@@H]3C[C@H](C)CCO[C@H]32)[C@H](C)Cl)C(O)[C@@H](O)[C@H]1O (stereo partly drawn) [FSA-10-10-014] | 1 (≈ 2.21 µM) | 8 (≈ 17.7 µM) | 128 (≈ 283 µM) | 2 (≈ 4.42 µM) | 64 (≈ 141 µM) | 1 (≈ 2.21 µM) | 16 (≈ 35.3 µM) | > 128 | 64 (≈ 141 µM) | 64 (≈ 141 µM) | > 128 | 8 (≈ 17.7 µM) |
| CC[C@@H]1CCO[C@@H]2[C@H](CN[C@@H]2C(=O)N[C@H]([C@H](C)Cl)[C@H]2OC(SC)[C@H](O)[C@H](O)C2O)C1 (stereo partly drawn) [FSA-10-10-012] | 0.125 (≈ 0.268 µM) | 2 (≈ 4.28 µM) | 16 (≈ 34.3 µM) | 0.125 (≈ 0.268 µM) | 16 (≈ 34.3 µM) | 0.125 (≈ 0.268 µM) | 0.25 (≈ 0.535 µM) | 32 (≈ 68.5 µM) | 8 (≈ 17.1 µM) | 8 (≈ 17.1 µM) | > 128 | 0.5 (≈ 1.07 µM) |
